These results are taken from patent US8552035B2, “Phenanthrenone compounds, compositions and methods” (Pfizer Inc., priority 2008, dated 2013).

Common to all, as to type: in vivo
One data set deals with osteocalcin. In words: 28-day mouse side-effect model, serum osteocalcin suppression. To be noted: oral gavage 28 days. Here is the method: (§1) 10-12 week old female Swiss Webster mice (Taconic, Germantown, N.Y., U.S.A.) weighing 27-29 grams are used in accordance with the guidelines of the Institutional Animal Care and Use Committee and in accordance with NIH guidelines on laboratory animal welfare. Mice are acclimated to the Pfizer animal facility for 3-7 days prior to being placed on study. Prednisolone and DAGR compounds are administered by oral gavage for a total of 28 days. Each treatment group generally contains 8-10 mice. To establish a dosing regimen for the studies, a pilot pharmacodynamic time course experiment is conducted to quantify TNFa repression after a single ED80 dose (determined from the acute LPS endotoxemia mouse model). […] DAGR compounds vary in their required frequency of doses.
(§2) Body weights are measured on the first and last day of each experiment. Blood samples are obtained after ˜3 weeks of dosing for steady-state pharmacokinetic analysis. To assess compound effects on LPS-induced TNF-a, all mice receive an intraperitoneal injection of LPS (Salmonella Typhosa, Sigma, St. Louis, L-7895) 2.5 hr after the last dose on day 28. Mice are sacrificed 90 min. after LPS administration. Serum samples are assayed for osteocalcin and TNFa using the Linco multiplex assay (St. Charles, Mo.) and Luminex 100 (Austin, Tex.). Samples are diluted 1:20 and the assay is run according to manufacturer's instructions. An osteocalcin standard is purchased separately from Biomedical Technologies Incorporated (Stoughton, Mass.). Serum insulin is measured to assess compound effects on insulin resistance. Insulin was measured using the UltraSensitive Mouse EIA kit from Alpco Diagnostics (Salem, N.H.) following the manufacturer's protocol.
(§3) ED50 and ED80 values are obtained for the various parameters using four-parameter logistic fits of data. For each experiment/dose group, outliers are detected by calculating the number of standard deviations each mouse's value was from the mean of their group and then dividing by the standard deviation of the group. The means and standard deviations used in this calculation omitted the value being examined so that, if it were an outlier, it would have no influence. If the value being examined is more than 2.5 standard deviations from the mean, it was not used in the rest of the calculations.
(§4) Percent inhibition values are then calculated for each animal using the means of the vehicle and 10 mpk prednisone control groups. The individual mouse percent inhibition values are then fit to a four-parameter logistic model using the area under curve mean for each group. Since all four parameters are estimated and the lower plateau is not fixed at 0% and the upper plateau was not fixed at 100%, the ED50 and ED80 values are calculated by using an inverse calibration formula for a response equal to 50% or 80%. The designation “nd” means not determined.

A further data set has as its system LPS-induced TNFα. Kind of data set: 28-day mouse side-effect model, LPS-induced serum TNFα suppression. To be noted: oral gavage 28 days, LPS challenge. Here is the method:
as §1, §2, §3, §4

The subject of a further data set is serum insulin. In words: 28-day mouse side-effect model, serum insulin. As to conditions: oral gavage 28 days. Here is the method:
as §1, §2, §3, §4

A further data set deals with bone formation rate. In words: 28-day mouse side-effect model, cortical bone histomorphometry (bone formation rate). As to conditions: oral gavage 28 days, tibia cortical bone formation rate. Here is the method: as §1
During the in-life portion of each study, mice received two IP injections of the fluorochrome calcein (C-0875; Sigma-Aldrich; 20 mg/kg; 200 μL/mouse), dissolved in 2% sodium bicarbonate, on days 1 and 26 for bone histomorphometry measurements. Fluorochrome labels incorporate into the bone mineral and allow measurement of bone formation rate. During the tissue harvest, the left tibia is excised and cleaned for cortical histomorphometry measurements. After all skin and muscle are removed, tibiae are placed in 70% ethanol (4° C.) in the dark for a minimum of 24 hours.
Ground transverse sections are used for histomorphometric analysis of cortical bone^1. Bones are sectioned using a low speed saw (Isomet, Buehler, Lake Bluff, Ill.) equipped with a diamond wafer blade. The end of each tibia is removed proximal to tibia-fibula synostosis and a […] cross-section is cut. Using a roughened glass plate and a cork, sections are ground to […] until transparent and all labels distinguishable under a fluorescent microscope. Sections are dehydrated using the following solutions for a minimum of 2 minutes each: 1) 70% ethanol, 2) 95% ethanol, 3) 100% ethanol, 4) 50/50 ethanol/xylene, and 5) xylene (twice) (Sigma, St. Louis, 534056). Sections are mounted using Eukitt Quick Mounting Medium (Sigma, St. Louis, 03989) and cover-slipped. Using the Osteomeasure Bone Analysis Program (Decatur, Ga.), bone formation rate is calculated by tracing the 1st and 2nd fluorescent labels in addition to tracing the inner and outer perimeter of the bone. Bone formation rate is calculated by the following equation: (Interlabel Width/Label Interval)*(Labeled Perimeter/Bone Perimeter). At least 5 samples are measured from each treatment group in each study.
as §3, §4

Data set [1] deals with Mouse collagen-induced arthritis. Kind of data set: Therapeutic mouse collagen-induced arthritis (mCIA).
From the text: Mouse Collagen-induced arthritis is a commonly used chronic, preclinical model of rheumatoid arthritis in which joint swelling and bone destruction occur following immunization with type II collagen. Reduction of disease incidence and severity has been shown previously to be predictive of disease-modification and signs and symptoms mitigation, respectively, in a clinical setting.
In the therapeutic mCIA model, induction of disease incidence and severity was synchronized via LPS stimulation. Male DBA/J mice were immunized with 100 ug of bovine type II collagen (bCII) on day 0. All mice received an intraperitoneal injection of 20 μg of LPS on day 28 and disease was allowed to develop through day 34. At day 34, all mice had disease (incidence=100%) with an average severity score of seven. Dosing of compounds was initiated in the therapeutic mode on day 34 and continued through day 49. Different treatments were compared by measuring the decrease in incidence (i.e., resolution of disease) and the decrease in severity of paw swelling over time.
as §3, §4

Broadly, the ED50 is the dose at which the effect has come halfway, by size or by number of responders.

On to `Cc1ncccc1NC(=O)c1ccc2c(c1)CC[C@@H]1C[C@@](O)(c3ccccn3)[C@](C)(O)C[C@@]21Cc1ccccc1` [Comparator C, (4bR,6R,7R,8aR)-4b-benzyl-6,7-dihydroxy-6-methyl-N-(2-methylpyridin-3-yl)-7-(pyridin-2-yl)-4b,5,6,7,8,8a,9,10-octahydrophenanthrene-2-carboxamide], for which the ED50 at 28 days in the data set with osteocalcin (female, Swiss Webster, read-out: Osteocalcin Suppression (ED50 dose)) was 3.68 mg/kg; in the data set on serum insulin (female, Swiss Webster, read-out: Insulin (ED50 dose)) it was > 20 mg/kg; with bone formation rate (female, Swiss Webster, read-out: BFR (ED50 dose)) it was 3.72 mg/kg. The “Osteocalcin Suppression (ED80 dose)” value in the data set with osteocalcin is given as >20. For the same molecule, the ED50 turned out to be 3.08 mg/kg in the data set on LPS-induced TNFα (672 h, read-out: TNFα Suppression (ED50 dose)) and 0.8 mg/kg in data set [1] (816 h, dosing day 34 to 49, read-out: Therapeutic mCIA (ED50 dose)). Besides, the “TNFα Suppression (ED80 dose)” value in the data set on LPS-induced TNFα amounted to 9.87. Besides, in the data set with serum insulin, the “Insulin (ED80 dose)” value is reported as >20. Also, the “BFR (ED80 dose)” value in the data set with bone formation rate amounted to 7.88. Also, the “Therapeutic mCIA (ED80 dose)” value in data set [1] (dosing day 34 to 49) came out at 2.9.
